Here are results for two compounds from patent US9682013B2, “Pharmaceutical compositions comprising human antibodies to PCSK9” (SANOFI BIOTECHNOLOGY, priority 2011, dated 2017).

In test [1] the test system is patients with genotype-confirmed hoFH. The conditions noted are these: ezetimibe 10 mg/day added to maximal dose of statins; cited from earlier work.
In test [2] the test system is male Syrian hamster. Nature of the test: Study 4: cholesterol lowering effect of 316P alone and with atorvastatin in hamster. The conditions noted are these: treatment alone up to the maximal tolerated dose. Type of test: in vivo. From the text:
This is an animal study on the cholesterol lowering effect of 316P, a fully human PCSK9 blocking monoclonal antibody in male Syrian hamster
The aim of this study was to investigate the effect of 316P, a human monoclonal antibody to human PCSK9, alone and in combination with statins on expression of the hepatic LDLR and the resulting effects on serum LDL-C.
The maximal effect on LDL-C (−17/−27/−60%) was seen within 7 days. PK data of 316P are in line with the dose-dependent effect on LDL-C.

The subject of test [3] is patients with an elevated LDL-C (≧100 mg/dL or 2.59 mmol/L) treated with a stable dose of atorvastatin 10 mg. The test is described as follows: Study 2: randomized, double-blind, placebo-controlled 8-week study of 316P 150 mg E2W with atorvastatin 10 mg or 80 mg. It is filed as in vivo, human. The conditions noted are these: placebo+atorvastatin 80 mg group, previously on atorvastatin 10 mg. How it is done: This was a randomized, double-blind, 3-parallel-groups, placebo-controlled, fixed dose/dose regimen, multicenter, 8-week study in subjects with primary hypercholesterolemia, aged 18-75 years. One aim of this study was to assess the efficacy and safety of 316P in patients with an elevated LDL-C (≧100 mg/dL or 2.59 mmol/L) treated with a stable dose of atorvastatin 10 mg.
During the screening period, patients had to be stabilized to atorvastatin 10 mg for at least 6 weeks, if they are not already. Then, after 1 additional screening week, patients were centrally randomized via IVRS/IWRS in a 1:1:1 ratio to one of the 3 treatment groups (placebo for 316P+atorvastatin 80 mg, 316P 150 mg E2W+atorvastatin 80 mg, 316P 150 mg E2W+atorvastatin 10 mg) and treated in a double-blind manner for approximately 8 weeks. 316P was administered every 2 weeks on site trough subcutaneous injection and atorvastatin was administered orally once daily in the evening at home. The double-blind treatment period was then followed by an 8-week follow-up period.
Inclusion criteria: • Patients (patients receiving a lipid lowering treatment other than atorvastatin/or not at stable dose of atorvastatin 10 mg for at least 6 weeks prior to screening period, or drug naive patients) with primary hypercholesterolemia likely to have low-density lipoprotein cholesterol (LDL-C)≧100 mg/dL (≧2.59 mmol/L) at the end of the run-in period on atorvastatin therapy (Week-1). • OR • Patients with primary hypercholesterolemia treated with stable dose of atorvastatin 10 mg for at least 6 weeks prior to screening period and likely to have low-density lipoprotein cholesterol (LDL-C)≧100 mg/dL (≧2.59 mmol/L) at the screening visit (Week-1).
Duration of Study Period Per Subject:
• Arm 1: The first group of patients receives one subcutaneous injection of 1 mL of antibody 316P, administered in the abdomen every two weeks, with a dose regimen at 150 mg, for a double-blind treatment period of 8 weeks; • Atorvastatin is administered once per day at a stable dose of 10 mg as background therapy. • Atorvastatin is administered at a dose of 80 mg once during the double-blind treatment period of 8 weeks. • Arm 2: The second group of patients receives one subcutaneous injection of 1 mL of a placebo solution, administered in the abdomen every two weeks, with a dose regimen at 150 mg, for a double-blind treatment period of 8 weeks; • Atorvastatin is administered once per day at a stable dose of 10 mg as background therapy. • Atorvastatin is administered at a dose of 80 mg (2 over-encapsulated atorvastatin 40 mg tablets) once during the double-blind treatment period of 8 weeks. • Arm 3: The third group of patients receives one subcutaneous injection of 1 mL of antibody 316P, administered in the abdomen every two weeks, with a dose regimen at 150 mg, for a double-blind treatment period of 8 weeks; • Atorvastatin is administered once per day at a stable dose of 10 mg as background therapy. • Atorvastatin is administered at a dose of 10 mg (1 over-encapsulated atorvastatin 10 mg tablet+1 matching placebo tablet) once during the double-blind treatment period of 8 weeks. Primary and Key Secondary Endpoints Primary Endpoints
The primary efficacy variable is the percent change in calculated LDL-C from baseline to Week 8, which is defined as: 100×(calculated LDL-C value at Week 8-calculated LDL-C value at baseline)/calculated LDL-C value at baseline.
In case of unavailable calculated LDL-C value at Week 8 as defined above, then the last calculated LDL-C value measured during the efficacy period and before the Week 8 time window was used to impute the missing Week 8 calculated LDL-C value (Last Observation Carried Forward [LOCF] procedure). […]

On to `O=C1[C@H](CC[C@H](O)c2ccc(F)cc2)[C@@H](c2ccc(O)cc2)N1c1ccc(F)cc1` [ezetimibe], for which the “total reduction of LDL-C levels” value in test [1] is reported as 27%.

As for `CC(C)c1c(C(=O)Nc2ccccc2)c(-c2ccccc2)c(-c2ccc(F)cc2)n1CC[C@@H](O)C[C@@H](O)CC(=O)O` [atorvastatin, reference compound], in test [2], the LDL-C entry was “did not decrease LDL-C” and the “hepatic LDLR expression” value is “no effect”. Further, in test [3], the “median reduction from baseline in LDL-C at 8 weeks” value was −26.9%.
